Experimental findings from publication PMC10175918 (Communications Biology, 2023) are described below.

Read-outs that look alike come from different tables or passages of the source.

Assay in all cases: TGFα-shedding assay-based GPCR screening with chimeric Gα subunit proteins
What all share (assay type): cell-based

Assay [1] has as its target T1, 348 GPCRs (Homo sapiens, UniProt Q9UJ42).
T1 construct: expressed in transfected cells; host or cells: HEK293A
The note with it: 10µM, Favipiravir 100μM.

Assay [2] deals with 348 GPCRs (Homo sapiens, UniProt O60894). The note with it: 10µM, Favipiravir 100μM.
The target in assay [3] is T2, 348 GPCRs (Homo sapiens, UniProt P47893).
T2 construct: expressed in transfected cells; host or cells: HEK293A
T2 sequence (P47893 1-321): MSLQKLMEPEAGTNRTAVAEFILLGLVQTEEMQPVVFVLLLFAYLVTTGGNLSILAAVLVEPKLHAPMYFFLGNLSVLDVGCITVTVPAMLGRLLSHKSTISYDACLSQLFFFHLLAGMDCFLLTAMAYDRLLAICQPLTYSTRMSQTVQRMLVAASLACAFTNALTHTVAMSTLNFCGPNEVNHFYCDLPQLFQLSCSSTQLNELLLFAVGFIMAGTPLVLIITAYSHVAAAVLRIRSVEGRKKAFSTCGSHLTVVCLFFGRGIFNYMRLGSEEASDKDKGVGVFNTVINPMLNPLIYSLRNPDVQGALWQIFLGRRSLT
The note with it: 10µM, Favipiravir 100μM.

For assay [4], the target named is T3, 348 GPCRs (Homo sapiens, UniProt P49685).
T3 sequence (P49685 1-360): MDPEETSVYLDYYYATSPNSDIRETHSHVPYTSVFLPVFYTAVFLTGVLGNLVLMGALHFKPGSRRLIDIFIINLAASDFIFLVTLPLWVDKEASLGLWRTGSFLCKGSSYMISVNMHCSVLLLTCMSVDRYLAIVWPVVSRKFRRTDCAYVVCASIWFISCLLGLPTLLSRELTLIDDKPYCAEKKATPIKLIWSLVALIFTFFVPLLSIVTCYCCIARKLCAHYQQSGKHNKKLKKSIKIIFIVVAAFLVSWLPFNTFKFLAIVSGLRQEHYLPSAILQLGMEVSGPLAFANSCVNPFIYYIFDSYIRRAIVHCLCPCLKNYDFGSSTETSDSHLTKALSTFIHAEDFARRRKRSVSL
Particulars: 10µM, Favipiravir 100μM.

Assay [5] concerns the target 348 GPCRs (Homo sapiens, UniProt P41145). The note with it: read-out: % GPCR activation compared to TPA, OPRK1 (opioid receptor, kappa 1 (KOR)); 10µM, Favipiravir 100μM.
Assay [6] concerns the target 348 GPCRs (Homo sapiens, UniProt P46093).
Assay [7] addresses T4, 348 GPCRs (Homo sapiens, UniProt P50391).
T4 construct: expressed in transfected cells; host or cells: HEK293A
The note with it: 10µM, Favipiravir 100μM.

In assay [8] the target is T5, 348 GPCRs (Homo sapiens, UniProt Q16581).
T5 sequence (Q16581 1-482): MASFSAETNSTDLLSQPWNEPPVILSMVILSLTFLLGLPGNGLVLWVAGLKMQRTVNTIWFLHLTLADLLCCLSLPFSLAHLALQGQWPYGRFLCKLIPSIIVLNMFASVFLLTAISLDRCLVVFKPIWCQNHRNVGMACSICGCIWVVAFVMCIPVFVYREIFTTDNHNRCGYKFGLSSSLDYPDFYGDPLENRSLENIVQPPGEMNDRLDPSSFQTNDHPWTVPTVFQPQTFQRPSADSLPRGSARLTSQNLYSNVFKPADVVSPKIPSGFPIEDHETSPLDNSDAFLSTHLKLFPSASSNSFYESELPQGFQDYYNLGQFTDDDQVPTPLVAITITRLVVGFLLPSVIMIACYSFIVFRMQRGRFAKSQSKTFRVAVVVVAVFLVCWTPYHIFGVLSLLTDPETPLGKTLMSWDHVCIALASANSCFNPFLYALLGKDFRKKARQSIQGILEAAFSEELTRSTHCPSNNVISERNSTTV
Particulars: 10µM, Favipiravir 100μM.

In assay [9] the target is T6, 348 GPCRs (Homo sapiens, UniProt P32248).
T6 construct: expressed in transfected cells; host or cells: HEK293A
T6 sequence (P32248 25-378): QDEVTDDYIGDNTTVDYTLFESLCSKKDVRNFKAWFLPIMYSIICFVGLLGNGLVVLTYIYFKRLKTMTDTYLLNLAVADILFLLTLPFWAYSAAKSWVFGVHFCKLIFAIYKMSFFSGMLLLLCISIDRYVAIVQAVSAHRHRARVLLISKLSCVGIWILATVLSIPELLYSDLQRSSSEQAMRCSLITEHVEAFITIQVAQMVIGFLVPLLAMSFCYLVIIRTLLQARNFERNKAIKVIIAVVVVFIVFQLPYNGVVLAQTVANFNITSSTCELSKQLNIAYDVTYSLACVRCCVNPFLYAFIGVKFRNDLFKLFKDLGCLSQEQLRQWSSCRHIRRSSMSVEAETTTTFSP
Particulars: CCR7 (C-C motif chemokine receptor 7); 10µM, Favipiravir 100μM.

Assay [10] has as its target T7, 348 GPCRs (Homo sapiens, UniProt Q9NS75).
T7 construct: expressed in transfected cells; host or cells: HEK293A
T7 sequence (Q9NS75 1-346): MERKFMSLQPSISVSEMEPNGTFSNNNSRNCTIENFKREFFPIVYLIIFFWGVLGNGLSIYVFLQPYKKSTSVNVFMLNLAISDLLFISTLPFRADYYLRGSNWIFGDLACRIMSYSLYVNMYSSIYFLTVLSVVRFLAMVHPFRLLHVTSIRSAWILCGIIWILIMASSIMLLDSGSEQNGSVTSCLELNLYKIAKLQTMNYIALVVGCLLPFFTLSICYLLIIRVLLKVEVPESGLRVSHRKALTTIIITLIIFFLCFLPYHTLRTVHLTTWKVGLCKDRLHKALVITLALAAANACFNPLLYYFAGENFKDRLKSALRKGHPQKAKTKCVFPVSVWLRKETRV

The mark [11] stands for this setting: GPR160 (G Protein-Coupled Receptor 160), read-out: % GPCR activation compared to TPA.
[12] abbreviates: RAMP1 (receptor-activity-modifying protein 1), read-out: % GPCR activation compared to TPA.
The mark [13] stands for this setting: OR3A2 (olfactory receptor, family 3, subfamily A, member 2), read-out: % GPCR activation compared to TPA.
The mark [14] stands for this setting: GPR15 (G protein-coupled receptor 15), read-out: % GPCR activation compared to TPA.
Setting [15] is: GPCR GPR4 (G Protein-Coupled Receptor 4), read-out: % GPCR activation compared to TPA.
[16] abbreviates: NPY4R (neuropeptide Y receptor Y4), read-out: % GPCR activation compared to TPA.
Where [17] appears, read: C3AR1 (complement C3a receptor 1), read-out: % GPCR activation compared to TPA.
Where [18] appears, read: GPCR CYSLTR2 (cysteinyl leukotriene receptor 2), read-out: % GPCR activation compared to TPA.
[19] abbreviates: read-out: % GPCR activation compared to TPA, GPR160 (G Protein-Coupled Receptor 160).
Where [20] appears, read: read-out: % GPCR activation compared to TPA, RAMP1 (receptor-activity-modifying protein 1).
Where [21] appears, read: read-out: % GPCR activation compared to TPA, OR3A2 (olfactory receptor, family 3, subfamily A, member 2).
Setting [22] is: read-out: % GPCR activation compared to TPA, GPR15 (G protein-coupled receptor 15).
Where [23] appears, read: read-out: % GPCR activation compared to TPA, GPCR GPR4 (G Protein-Coupled Receptor 4).
The mark [24] stands for this setting: read-out: % GPCR activation compared to TPA, NPY4R (neuropeptide Y receptor Y4).
[25] abbreviates: read-out: % GPCR activation compared to TPA, C3AR1 (complement C3a receptor 1).
[26] abbreviates: read-out: % GPCR activation compared to TPA, GPCR CYSLTR2 (cysteinyl leukotriene receptor 2).

Sequence of 348 GPCRs (Homo sapiens, UniProt P41145) (P41145 whole entry): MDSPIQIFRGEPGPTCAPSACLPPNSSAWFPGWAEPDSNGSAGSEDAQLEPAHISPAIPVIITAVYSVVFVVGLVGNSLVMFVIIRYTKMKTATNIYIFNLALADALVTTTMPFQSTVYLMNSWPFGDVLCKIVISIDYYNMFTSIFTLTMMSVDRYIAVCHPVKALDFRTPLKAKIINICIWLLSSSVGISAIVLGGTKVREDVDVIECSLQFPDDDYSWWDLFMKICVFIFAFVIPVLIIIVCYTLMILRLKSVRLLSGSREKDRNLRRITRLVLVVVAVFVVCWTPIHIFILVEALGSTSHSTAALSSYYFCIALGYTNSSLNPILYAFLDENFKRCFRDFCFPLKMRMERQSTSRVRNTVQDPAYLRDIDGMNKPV
T1 sequence (Q9UJ42 whole entry): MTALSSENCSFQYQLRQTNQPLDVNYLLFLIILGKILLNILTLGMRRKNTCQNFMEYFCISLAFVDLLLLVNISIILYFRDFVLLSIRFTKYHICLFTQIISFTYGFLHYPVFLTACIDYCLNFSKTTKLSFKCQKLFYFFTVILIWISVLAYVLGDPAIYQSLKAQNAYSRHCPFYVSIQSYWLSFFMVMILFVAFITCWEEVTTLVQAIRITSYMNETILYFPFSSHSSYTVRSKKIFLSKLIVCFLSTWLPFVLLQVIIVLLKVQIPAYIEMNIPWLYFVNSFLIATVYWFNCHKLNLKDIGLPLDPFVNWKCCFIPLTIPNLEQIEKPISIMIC
Sequence of 348 GPCRs (Homo sapiens, UniProt P46093) (P46093 whole entry): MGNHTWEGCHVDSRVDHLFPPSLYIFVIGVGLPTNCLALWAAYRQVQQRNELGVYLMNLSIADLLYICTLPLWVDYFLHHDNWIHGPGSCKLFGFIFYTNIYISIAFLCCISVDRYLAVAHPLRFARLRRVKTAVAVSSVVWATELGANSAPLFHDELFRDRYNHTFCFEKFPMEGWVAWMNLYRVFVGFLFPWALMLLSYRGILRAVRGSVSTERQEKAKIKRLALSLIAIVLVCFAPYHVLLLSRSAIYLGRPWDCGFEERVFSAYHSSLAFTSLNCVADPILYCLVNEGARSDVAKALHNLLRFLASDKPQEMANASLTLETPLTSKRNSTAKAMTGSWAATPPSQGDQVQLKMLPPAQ
T4 sequence (P50391 whole entry): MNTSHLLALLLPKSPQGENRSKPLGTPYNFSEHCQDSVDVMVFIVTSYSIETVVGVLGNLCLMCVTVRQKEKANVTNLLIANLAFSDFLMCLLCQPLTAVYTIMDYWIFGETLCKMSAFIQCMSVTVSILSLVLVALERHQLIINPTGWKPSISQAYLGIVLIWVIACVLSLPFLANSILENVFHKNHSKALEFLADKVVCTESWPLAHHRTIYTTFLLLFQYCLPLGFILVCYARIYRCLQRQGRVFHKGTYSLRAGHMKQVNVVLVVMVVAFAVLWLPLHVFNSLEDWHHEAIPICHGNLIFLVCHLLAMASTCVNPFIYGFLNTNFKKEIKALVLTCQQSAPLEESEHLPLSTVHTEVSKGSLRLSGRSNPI
Sequence of 348 GPCRs (Homo sapiens, UniProt O60894) (O60894 27-148): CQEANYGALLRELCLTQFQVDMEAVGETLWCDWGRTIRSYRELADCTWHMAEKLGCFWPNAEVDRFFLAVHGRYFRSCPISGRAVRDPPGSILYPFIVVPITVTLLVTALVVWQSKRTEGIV

With `CC(C)C(=O)OC[C@H]1O[C@@H](n2ccc(NO)nc2=O)[C@H](O)[C@@H]1O` [molnupiravir], the activation at 10 µM is 0.0934% in assay [1] (setting [11]); -0.408% in [3] (setting [13]); -3.97% in assay [6] (setting [15]); -0.773% in assay [8] (setting [17]); -0.187% in [10] (setting [18]). The activation at 100 µM in [2] (setting [12]) is -0.742%; in assay [4] (setting [14]) it was -0.0279%; in assay [5], -1.39%; in assay [7] (setting [16]), -1.31%. Further, the “% GPCR activation compared to TPA” value in assay [9] amounted to 0.5462%.
Turning to `CC(C)OC(=O)[C@H](C)N[P@](=O)(OC[C@H]1O[C@@H](n2ccc(=O)[nH]c2=O)[C@](C)(F)[C@@H]1O)Oc1ccccc1` [sofosbuvir], the activation at 10 µM was 2.1% in assay [1] (setting [19]); -1.07% in assay [3] (setting [21]); 1.94% in assay [6] (setting [23]); -0.133% in [8] (setting [25]); -0.91% in assay [10] (setting [26]). For the same compound, the activation at 100 µM was -0.995% in assay [2] (setting [20]), -12.9% in assay [4] (setting [22]), -1.11% in assay [5] and -0.849% in [7] (setting [24]). In [9], the “% GPCR activation compared to TPA” value is -0.9167%.
Turning to `N#C[C@@]1(c2ccc3c(N)ncnn23)O[C@H](CO)[C@@H](O)[C@H]1O` [GS441524], the activation at 10 µM in [1] (setting [11]) was 0.113%; in [3] (setting [13]) it was -9.89%; in assay [6] (setting [15]) it was -0.661%; in [8] (setting [17]) it was 3.33%; in assay [10] (setting [18]), -1.21%. The activation at 100 µM in [2] (setting [12]) was -0.968%; in assay [4] (setting [14]) it was -0.752%; in assay [5], -1.93%; in [7] (setting [16]) it was -1.48%. Also, in assay [9], the “% GPCR activation compared to TPA” value is given as -0.998%.
For the compound `NC(=O)c1nc(F)cnc1O` [favipiravir, 6-fluoro-3-hydroxy-2-pyrazinecarboxamide], the activation at 10 µM in assay [1] (setting [11]) is -0.794%; in assay [3] (setting [13]), -0.0334%; in [8] (setting [17]), 1.69%. Besides, the activation at 100 µM in [2] (setting [12]) is -0.805%; in assay [4] (setting [14]) it was 1.23%; in assay [5], -1.65%; in assay [6] (GPCR GPR4 (G Protein-Coupled Receptor 4), 100μM, read-out: % GPCR activation compared to TPA), -3.16%; in assay [7] (setting [16]) it was -2.23%; in [10] (GPCR CYSLTR2 (cysteinyl leukotriene receptor 2), 100μM, read-out: % GPCR activation compared to TPA) it was -1.33%. Moreover, the “% GPCR activation compared to TPA” value in [9] is recorded as -0.3349%.
Consider `CCC(CC)COC(=O)[C@H](C)N[P@](=O)(OC[C@H]1O[C@@](C#N)(c2ccc3c(N)ncnn23)[C@H](O)[C@@H]1O)Oc1ccccc1` [remdesivir], for which the activation at 10 µM in assay [1] (setting [19]) is 0.13%; in [3] (setting [21]), -3.15%; in assay [6] (setting [23]) it was -1.37%; in assay [8] (setting [25]), 6.7%; in [10] (setting [26]) it was -0.408%. For the same compound, the activation at 100 µM in assay [2] (setting [20]) was 1.07%; in assay [4] (setting [22]) it was -0.0536%; in [5] it was 6.17%; in assay [7] (setting [24]) it was -1.2%.
